Assay results published in patent publication US4315939A, “Piperidine derivatives of 4,5-dialkyl-3-hydroxy-pyrrole-2-carboxylic acid esters, pharmaceutical formulations containing these compounds and use in treating cardiac arrhythmias” (priority 1979, dated 1982).
Counter-ions that a name gives are not always drawn.

What was measured:
Type in all cases: in vivo, rats (Sprague Dawley)
[1] = system: aconitine-induced arrhythmia of rats; test: Anti-arrhythmic effect on aconitine-induced arrhythmia in rats, oral administration; conditions: for ED50 / Emax: Rattus norvegicus, po; for ED50: read-out: ED 50% (dose which lengthens the duration of aconitine infusion by 50%); for Emax: read-out: R.M.E. = relative maximum effect; for Maximum effect: lengthening of the duration of aconitine infusion, Δ%: at the maximum tolerated dose, oral, rats; for R.A. = relative activity: relative to Prajmalium = 1.00, from ED 50%; for anti-arrhythmic activity compared with Prajmalium: in words, aconitine-induced arrhythmia of rats
Description: (§1) To determine the anti-arrhythmic activity, the substances are administered orally to rats (Sprague Dawley, weight 200-250 g), 45 minutes before narcosis.
(§2) The animals are narcotized with sodium thiobutabarbital (100 mg/kg administered intraperitoneally). The arrhythmogenic substance used is aconitine, which is infused intravenously, at a rate of 0.005 mg/kg×min 60 minutes after the administration of the anti-arrhythmicagent. In untreated animals (N=52), arrhythmias manifest themselves in the electrocardiogram (ECG) after 2.74±0.07 min, and the occurrence of these can be delayed by the anti-arrhythmic agents, the delay being dependent on the dose.
The dose which lengthens the duration of infusion up to the occurrence of arrhythmias by 50%, namely the ED 50%, is determined from the linear relationships between log dose (mg/kg) of the test substance and the relative increase in the duration of aconitine infusion (Δ%).
(§3) For further characterization of the substances, the anti-arrhythmic effect of the maximum tolerated dose is determined from the decimal-geometric dose progression (factor 3.cuberoot.10) employed in the experiments. Furthermore, the dose at which toxic symptoms (changes in the initial ECG, cyanosis and cramps) occur is determined.
^(1) Dose which lengthens the duration of aconitine infusion by 50%
^(2) R.A. = relative activity. Prajmalium = 1.00
(§4) ^(3) Effect of the maximum tolerated dose
^(4) Lengthening of the duration of aconitin infusion, Δ %
^(5) R.M.E. = relative maximum effect, Prajmalium = 1.00

[2] = Toxicity / toleration in rats (changes in the initial ECG, cyanosis and cramps), oral administration; parameters: Toxicity: Dose whose administration produces the first toxic symptoms: unit: mg/kg; conditions: rat, in vivo; oral, rats; mg/kg printed only over the effective dose columns and in b40 (log dose); read-out: Maximum effect: Dose (maximum tolerated dose)
Description: as §1, §2, §3, §4
(§5) ^(6) Dose whose administration produces the first toxic symptoms

[3] = system: rats; test: as above; parameters: Toxicity: Dose whose administration produces the first toxic symptoms: unit: mg/kg; conditions: for Toxicity: Dose whose administration produces the first toxic symptoms / Q (therapeutic range, quotient of the toxic dose and the ED 50%): oral, rats; for Toxicity: Dose whose administration produces the first toxic symptoms: mg/kg printed only over the effective dose columns and in b40 (log dose); for Q (therapeutic range, quotient of the toxic dose and the ED 50%): toxic dose / ED 50%
Description: as §1, §2, §3, §4, §5

Structure (SMILES) | ED50 [1] [mg/kg] | Emax [1] [%] | Maximum effect: lengthening of the duration of aconitine infusion, Δ% [1] [%] | R.A. = relative activity [1] | MTD [2] [mg/kg] | Toxicity: Dose whose administration produces the first toxic symptoms [3] | Q (therapeutic range, quotient of the toxic dose and the ED 50%) [3] | anti-arrhythmic activity compared with Prajmalium [1] | toxic dose compared with Prajmalium ([3]; in words)
CCOC(=O)c1[nH]c(C)c(C)c1OCC(O)CN1CCC(O)(c2ccccn2)CC1 (stereo not drawn) [Example 1, 3-[2-hydroxy-3-(4-α-pyridyl-4-hydroxy-piperidino)-propoxy]-4,5-dimethyl-pyrrole-2-carboxylic acid ethyl ester dihydrochloride] | 7.8 | 186 | 324 | 0.64 | 46.4 | 100 | 13 |  | 
CCOC(=O)c1[nH]c(C)c(C)c1OCC(O)CN1CCC(O)(c2ccccc2)CC1 (centres unmarked) [Example 2, 3-[2-hydroxy-3-(4-phenyl-4-hydroxy-piperidino)-propoxy]-4,5-dimethyl-pyrrole-2-carboxylic acid ethyl ester hydrochloride] | 6.23 | 98 | 170 | 0.80 | 21.5 | 46.4 | 7.5 | as active as Prajmalium | 
COC(=O)c1[nH]c(C)c(C)c1OCCCN1CCC(O)(c2ccccc2)CC1 [Example 6, 3-[3-(4-phenyl-4-hydroxy-piperidino)-propoxy]-4,5-dimethylpyrrole-2-carboxylic acid methyl ester] | 3.68 | 87 | 152 | 1.36 | 10 | 21.5 | 5.8 | surpass the latter | of equal toxicity to Prajmalium
COC(=O)c1[nH]c(C)c(C)c1OCC(O)CN1CCC(O)(c2ccccn2)CC1 (stereo not drawn) [Example 7, 3-[2-hydroxy-3-(4-α-pyridyl-4-hydroxy-piperidino)-propoxy]-4,5-dimethylpyrrole-2-carboxylic acid methyl ester] | 13.5 | 176 | 307 | 0.37 | 46.4 | 100 | 7.4 |  | 
CCOC(=O)c1[nH]c(C)c(C)c1OCCN1CCC(O)(c2ccccc2)CC1 [Example 10, 3-[2-(4-phenyl-4-hydroxy-piperidino)-ethoxy]-4,5-dimethylpyrrole-2-carboxylic acid ethyl ester] | 2.99 | 199 | 347 | 1.67 | 21.5 | 46.4 | 16 | surpass the latter | 
COC(=O)c1[nH]c(C)c(C)c1OCCCCN1CCC(O)(c2ccccc2)CC1 [Example 11, 3-[4-(4-phenyl-4-hydroxy-piperidino)-butoxy]-4,5-dimethylpyrrole-2-carboxylic acid methyl ester] | 5.54 | 177 | 308 | 0.90 | 21.5 | 46.4 | 8.4 | as active as Prajmalium | 
CCOC(=O)c1[nH]c(C)c(C)c1OCC(O)CN1CCC(O)(c2ccc(F)cc2)CC1 (centres unmarked) [Example 13, 3-[2-hydroxy-3-(4-(p-fluorophenyl)-4-hydroxy-piperidino)-propoxy]-4,5-dimethylpyrrole-2-carboxylic acid ethyl ester] | 5.93 | 86 | 149 | 0.84 | 21.5 | 46.4 | 7.8 | as active as Prajmalium | 
COC(=O)c1[nH]c(C)c(C)c1OCC(O)CN1CCC(O)(c2ccccc2)CC1 (centres unmarked) [Example 19, 3-[2-hydroxy-3-(4-phenyl-4-hydroxy-piperidino)-propoxy]-4,5-dimethyl-pyrrole-2-carboxylic acid methyl ester] | 3.38 | 174 | 302 | 1.48 | 21.5 | 46.4 | 14 | surpass the latter | 
CCCCc1c(C)[nH]c(C(=O)OCC)c1OCC(O)CN1CCC(O)(c2ccccc2)CC1 (centres unmarked) [Example 21, 3-[2-hydroxy-3-(4-phenyl-4-hydroxy-piperidino)-propoxy]-4-n-butyl-5-methyl-pyrrole-2-carboxylic acid ethyl ester] | 9.85 | 99 | 173 | 0.51 | 46.4 | 100 | 10 |  | 
CCC[N+]12C(O)C(CC)C3CC1C1N(C)c4ccccc4C14CC2C3C4O (centres unmarked) [Prajmalium, N-propylajmalin, reference compound] | 4.99 | 100 | 174 | 1.00 | 10 | 21.5 | 4.3 |  | 
